Broadly, the IC50 is the midpoint of a concentration-inhibition curve.

Structures are written as SMILES.

This note sets out measurements from patent US9365576B2, “Pyrrolopyrrolidinone compounds” (Novartis AG, priority 2012, dated 2016).

Sequence of human MDM2 protein (amino acids 2-188) (Q00987 2-188): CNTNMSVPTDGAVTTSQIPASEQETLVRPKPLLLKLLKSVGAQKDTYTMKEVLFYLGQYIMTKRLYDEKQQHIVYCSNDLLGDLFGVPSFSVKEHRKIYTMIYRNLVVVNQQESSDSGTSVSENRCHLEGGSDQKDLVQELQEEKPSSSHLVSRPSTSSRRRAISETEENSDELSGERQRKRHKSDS

This assay concerns the target human MDM2 protein (amino acids 2-188) (Homo sapiens (Human), UniProt Q00987). The assay is described as follows: TR-FRET assay, p53-MDM2 Assay 2 (modified). In kind it is binding. As to conditions: TR-FRET; 0.1 nM MDM2, 0.1 nM Europium labeled streptavidin, Tecan genios Pro reader; read-out: IC50 p53-MDM2 Assay 2. The essentials:
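IC50 values were curve-fitted from the time-resolved 665/620 nm emission ratio after 340 nm excitation. The assay combined 0.625 nM europium-streptavidin donor with 1.25 nM C-terminally biotinylated MDM2 2–188 (15 min, RT), followed by 15 min with 10 nM Cy5-labeled p53 18–26 acceptor peptide.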
Regarding `COc1nc(N)ncc1-c1cc2c(n1C(C)C)C(c1ccc(Cl)cc1)N([C@H]1CC[C@H](OC)CC1)C2=O` (stereo partly drawn) [Example 141, 2-(2-Amino-4-methoxy-pyrimidin-5-yl)-6-(4-chloro-phenyl)-1-isopropyl-5-(trans-4-methoxy-cyclohexyl)-5,6-dihydro-1H-pyrrolo[3,4-b]pyrrol-4-one], the IC50 is 6.85 nM.
As for `COc1nc(N(C)C)ncc1-c1cc2c(n1C(C)C)C(c1ccc(C#N)cc1)N(c1cc(Cl)c(=O)n(C)c1)C2=O` (stereo not shown) [Example 185, 4-[5-(5-Chloro-1-methyl-6-oxo-1,6-dihydro-pyridin-3-yl)-2-(2-dimethylamino-4-methoxy-pyrimidin-5-yl)-1-isopropyl-4-oxo-1,4,5,6-tetrahydro-pyrrolo[3,4-b]pyrrol-6-yl]-benzonitrile], the figure is 0.225 nM.
Consider `CNc1ncc(-c2cc3c(n2C(C)C)C(c2ccc(C#N)cc2)N(c2cc(Cl)cn(C)c2=O)C3=O)c(OC)n1` (stereo not shown) [Example 130, 4-[5-(5-Chloro-1-methyl-2-oxo-1,2-dihydro-pyridin-3-yl)-1-isopropyl-2-(4-methoxy-2-methylamino-pyrimidin-5-yl)-4-oxo-1,4,5,6-tetrahydro-pyrrolo[3,4-b]pyrrol-6-yl]-benzonitrile], for which the IC50 was found to be 1.08 nM.
As for `COc1ccccc1-c1c(C#N)c2c(n1C(C)C)C(c1ccc(Cl)cc1)N(c1cc(Cl)ccc1C)C2=O` (stereo not shown) [Example 59, 5-(5-Chloro-2-methyl-phenyl)-6-(4-chloro-phenyl)-1-isopropyl-2-(2-methoxy-phenyl)-4-oxo-1,4,5,6-tetrahydro-pyrrolo[3,4-b]pyrrole-3-carbonitrile], the figure is 0.163 nM.
As to `CCn1c(-c2cnc(OC)nc2OC)cc2c1C(c1ccc(Cl)cc1)N(c1cc(Cl)ccc1C)C2=O` (stereo not shown) [Example 45, 5-(5-Chloro-2-methyl-phenyl)-6-(4-chloro-phenyl)-2-(2,4-dimethoxy-pyrimidin-5-yl)-1-ethyl-5,6-dihydro-1H-pyrrolo[3,4-b]pyrrol-4-one], the IC50 was 87.6 nM.
Take `COc1ccc(C(=O)O)cc1-c1cc2c(n1C(C)C)[C@@H](c1ccc(Cl)cc1)N(c1cc(Cl)ccc1C)C2=O` [Example 90, 3-[(R)-5-(5-Chloro-2-methyl-phenyl)-6-(4-chloro-phenyl)-1-isopropyl-4-oxo-1,4,5,6-tetrahydro-pyrrolo[3,4-b]pyrrol-2-yl]-4-methoxy-benzoic acid]: the IC50 came to 6.21 nM.
`COc1ccc(-c2cc3c(n2C(C)C)C(c2ccc(Cl)cc2)N(c2cc(Cl)ccc2C)C3=O)c(OC)c1` (stereo not shown) [Example 38, 5-(5-Chloro-2-methyl-phenyl)-6-(4-chloro-phenyl)-2-(2,4-dimethoxy-phenyl)-1-isopropyl-5,6-dihydro-1H-pyrrolo[3,4-b]pyrrol-4-one]: the IC50 was found to be 0.444 nM.
As for `CNC(=O)c1ccc(OC)c(-c2cc3c(n2C(C)C)C(c2ccc(Cl)cc2)N(c2ccc(F)c(Cl)c2)C3=O)c1` (stereo not shown) [Example 53, 3-[5-(3-Chloro-4-fluoro-phenyl)-6-(4-chloro-phenyl)-1-isopropyl-4-oxo-1,4,5,6-tetrahydro-pyrrolo[3,4-b]pyrrol-2-yl]-4-methoxy-N-methyl-benzamide], the figure is 0.323 nM; as for `COc1nc(N(C)C)ncc1-c1cc2c(n1C(C)C)[C@@H](c1ccc(Cl)c(F)c1)N(c1cc(Cl)c[nH]c1=O)C2=O` [Example 228, (R)-6-(4-Chloro-3-fluoro-phenyl)-5-(5-chloro-2-oxo-1,2-dihydro-pyridin-3-yl)-2-(2-dimethylamino-4-methoxy-pyrimidin-5-yl)-1-isopropyl-5,6-dihydro-1H-pyrrolo[3,4-b]pyrrol-4-one], 48.7 nM; as for `COc1ccc(C(=O)N(C)C)cc1-c1cc2c(n1C(C)C)[C@@H](c1ccc(Cl)cc1)N(c1cc(Cl)ccc1C)C2=O` [Example 21, 3-[(R)-5-(5-Chloro-2-methyl-phenyl)-6-(4-chloro-phenyl)-1-isopropyl-4-oxo-1,4,5,6-tetrahydro-pyrrolo[3,4-b]pyrrol-2-yl]-4-methoxy-N,N-dimethyl-benzamide], 621 nM.
As for `COc1ncc(-c2cc3c(n2C(C)C)C(c2ccc(Cl)cc2)N(c2cc(Cl)c(=O)n(C)c2)C3=O)c(OC)n1` (stereo not shown) [Example 48, 5-(5-Chloro-1-methyl-6-oxo-1,6-dihydro-pyridin-3-yl)-6-(4-chloro-phenyl)-2-(2,4-dimethoxy-pyrimidin-5-yl)-1-isopropyl-5,6-dihydro-1H-pyrrolo[3,4-b]pyrrol-4-one], the IC50 came out at 0.188 nM.
Turning to `COc1nc(N(C)C)ncc1-c1cc2c(n1C(C)C)[C@@H](c1ccc(C#N)cc1)N(c1cc(Cl)c(=O)n(C)c1)C2=O` [Example 233, (R)-4-(5-(5-Chloro-1-methyl-6-oxo-1,6-dihydropyridin-3-yl)-2-(2-(dimethylamino)-4-methoxypyrimidin-5-yl)-1-isopropyl-4-oxo-1,4,5,6-tetrahydropyrrolo[3,4-b]pyrrol-6-yl)benzonitrile], the IC50 was 60.2 nM.
The same measure for `COc1ccccc1-c1cc2c(n1C(C)C)C(c1ccc(Cl)cc1)N([C@H]1CC[C@H](O)CC1)C2=O` (stereo partly drawn) [Example 63, 6-(4-Chloro-phenyl)-5-(trans-4-hydroxy-cyclohexyl)-1-isopropyl-2-(2-methoxy-phenyl)-5,6-dihydro-1H-pyrrolo[3,4-b]pyrrol-4-one]: 8.13 nM; for `COc1ccccc1-c1cc2c(n1C(C)C)C(c1ccc(Cl)cc1C)N(c1cc(Cl)c(=O)n(C)c1)C2=O` (stereo not shown) [Example 144, 5-(5-Chloro-1-methyl-6-oxo-1,6-dihydro-pyridin-3-yl)-6-(4-chloro-2-methyl-phenyl)-1-isopropyl-2-(2-methoxy-phenyl)-5,6-dihydro-1H-pyrrolo[3,4-b]pyrrol-4-one]: 0.554 nM; for `COc1ncc(-c2cc3c(n2C(C)C)C(c2ccc(Cl)cn2)N(c2ccc(F)c(Cl)c2)C3=O)c(OC)n1` (stereo not shown) [Example 214, 5-(3-Chloro-4-fluoro-phenyl)-6-(5-chloro-pyridin-2-yl)-2-(2,4-dimethoxy-pyrimidin-5-yl)-1-isopropyl-5,6-dihydro-1H-pyrrolo[3,4-b]pyrrol-4-one]: 1.89 nM.
In the case of `COc1ccncc1-c1cc2c(n1C(C)C)C(c1ccc(Cl)cc1)N(c1cc(Cl)ccc1C)C2=O` (stereo not shown) [Example 13, 5-(5-Chloro-2-methyl-phenyl)-6-(4-chloro-phenyl)-1-isopropyl-2-(4-methoxy-pyridin-3-yl)-5,6-dihydro-1H-pyrrolo[3,4-b]pyrrol-4-one], the half-maximal inhibitory concentration (IC50) came out at 0.176 nM.
As for `COc1nc(N(C)C)ncc1-c1cc2c(n1C(C)C)C(c1ccc(Cl)c(F)c1)N(c1cc(Cl)c[nH]c1=O)C2=O` (stereo not shown) [Example 203, 6-(4-Chloro-3-fluoro-phenyl)-5-(5-chloro-2-oxo-1,2-dihydro-pyridin-3-yl)-2-(2-dimethylamino-4-methoxy-pyrimidin-5-yl)-1-isopropyl-5,6-dihydro-1H-pyrrolo[3,4-b]pyrrol-4-one], the figure is 0.119 nM.
The same measure for `CNc1ncc(-c2cc3c(n2C(C)C)C(c2ccc(Cl)cc2)N(c2cc(Cl)cn(C)c2=O)C3=O)c(OC)n1` (stereo not shown) [Example 72, 5-(5-Chloro-1-methyl-2-oxo-1,2-dihydro-pyridin-3-yl)-6-(4-chloro-phenyl)-1-isopropyl-2-(4-methoxy-2-methylamino-pyrimidin-5-yl)-5,6-dihydro-1H-pyrrolo[3,4-b]pyrrol-4-one]: 0.295 nM.
The same measure for `CNc1ncc(-c2cc3c(n2C(C)C)C(c2ccc(C#N)cc2)N(c2cc(Cl)c[nH]c2=O)C3=O)c(OC)n1` (stereo not shown) [Example 128, 4-[5-(5-Chloro-2-oxo-1,2-dihydro-pyridin-3-yl)-1-isopropyl-2-(4-methoxy-2-methylamino-pyrimidin-5-yl)-4-oxo-1,4,5,6-tetrahydro-pyrrolo[3,4-b]pyrrol-6-yl]-benzonitrile]: 0.527 nM.
Consider `COc1nc(N(C)C)ncc1-c1cc2c(n1C(C)C)C(c1ccc(C#N)cc1)N(c1cc(Cl)c[nH]c1=O)C2=O` (stereo not shown) [Example 127, 4-[5-(5-Chloro-2-oxo-1,2-dihydro-pyridin-3-yl)-2-(2-dimethylamino-4-methoxy-pyrimidin-5-yl)-1-isopropyl-4-oxo-1,4,5,6-tetrahydro-pyrrolo[3,4-b]pyrrol-6-yl]-benzonitrile], for which the IC50 turned out to be 0.359 nM.
The same measure for `COc1nc(N(C)C)ncc1-c1cc2c(n1C(C)C)C(c1ccc(C#N)c(F)c1)N(c1cc(Cl)cn(C)c1=O)C2=O` (stereo not shown) [Example 199, 4-[5-(5-Chloro-1-methyl-2-oxo-1,2-dihydro-pyridin-3-yl)-2-(2-dimethylamino-4-methoxy-pyrimidin-5-yl)-1-isopropyl-4-oxo-1,4,5,6-tetrahydro-pyrrolo[3,4-b]pyrrol-6-yl]-2-fluoro-benzonitrile]: 0.257 nM; for `COc1nc(N(C)C)ncc1-c1cc2c(n1C(C)C)C(c1ccc(C#N)cc1)N(c1c(F)c(C)nn1C)C2=O` (stereo not shown) [Example 231, 4-(2-(2-(Dimethylamino)-4-methoxypyrimidin-5-yl)-5-(4-fluoro-1,3-dimethyl-1H-pyrazol-5-yl)-1-isopropyl-4-oxo-1,4,5,6-tetrahydropyrrolo[3,4-b]ppyrrol-6-yl)benzonitrile]: 0.224 nM; for `COc1ccc(C(=O)O)cc1-c1cc2c(n1C(C)C)[C@H](c1ccc(Cl)cc1)N(c1cc(Cl)ccc1C)C2=O` [Example 89, 3-[(S)-5-(5-Chloro-2-methyl-phenyl)-6-(4-chloro-phenyl)-1-isopropyl-4-oxo-1,4,5,6-tetrahydro-pyrrolo[3,4-b]pyrrol-2-yl]-4-methoxy-benzoic acid]: 0.08 nM.
As for `COc1ncc(-c2cc3c(n2C(C)C)C(c2ccc(Cl)c(F)c2)N(c2cc(Cl)c[nH]c2=O)C3=O)c(OC)n1` (stereo not shown) [Example 202, 6-(4-Chloro-3-fluoro-phenyl)-5-(5-chloro-2-oxo-1,2-dihydro-pyridin-3-yl)-2-(2,4-dimethoxy-pyrimidin-5-yl)-1-isopropyl-5,6-dihydro-1H-pyrrolo[3,4-b]pyrrol-4-one], the figure is 0.201 nM; as for `COC[C@@H](C)n1c(-c2cnc(N)nc2OC)cc2c1C(c1ccc(C#N)cc1)N(c1ccc(F)c(Cl)c1)C2=O` (stereo partly shown) [Example 223], 0.631 nM.
